Where two headings read alike, the source gives them in different places.
Target: T1, RORγ (Homo sapiens, UniProt P51449)
T1 construct: The concentration of B-RORγ LBD was 40 nM
T1 sequence (P51449 269-508 limits assumed): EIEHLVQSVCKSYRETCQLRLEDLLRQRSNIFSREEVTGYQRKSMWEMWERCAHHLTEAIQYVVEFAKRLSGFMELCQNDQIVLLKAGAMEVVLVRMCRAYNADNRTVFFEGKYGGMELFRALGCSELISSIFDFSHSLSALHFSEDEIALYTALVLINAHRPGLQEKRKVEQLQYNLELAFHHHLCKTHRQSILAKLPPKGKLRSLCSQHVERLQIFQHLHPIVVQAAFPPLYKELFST
Assay: Fluorescence resonance energy transfer (FRET) test, B-RORγ LBD / Biotin-SRC1
Assay type: biochemical
Description: Biological Example 1 Fluorescence Resonance Energy Transfer (FRET) Test
(1) Preparation of RORγ Test Buffer and 10 mM of DTT
100 mL of 1× Basic test buffer (HEPES (pH 7.4), 100 mM NaCl, 0.01% BSA) was prepared, and 154.25 mg of DTT was added. The mixture was well mixed.
(2) Preparation of Compound with Gradient Concentration
a. Standard compound was prepared: Standard compound was diluted with 100% DMSO to 2.5 mM, then diluted 3-fold with 11 serial dilutions to a final concentration of […];
b. Test compound was prepared referring to the standard compound.
(3) Preparation of 1× Protein Solution Mixture
(§1) a. Preparation of the desired amount of 2× B-RORγ LBD/SA-APC protein mixture: The concentration of B-RORγ LBD was 40 nM, and the concentration of SA-APC was 20 nM. They were mixed by gently inversion, and incubated at room temperature for 15 minutes. Then 400 nM of biotin was added. The mixture was mixed by gently inversion, and incubated at room temperature for 10 minutes;
as §1, with “b.” for “a.”, “Biotin-SRC1/SA-eu” for “B-RORγ LBD/SA-APC”, “Bioin-SRC1” for “B-RORγ LBD”, “SA-eu” for “SA-APC”, “200” for “400”
c. The protein mixtures prepared in step a and step b were mixed at a ratio of 1:1, and incubated at room temperature for 5 minutes;
d. 25 μL of the mixture from step c was added to the 384-well plate containing the test compound;
e. The mixture was centrifuged at 1000 rpm for one minute;
f. The mixture was incubated for 1 hour at room temperature.
(4) Data Collection and Calculation
After incubation at room temperature for 1 hour, the fluorescence values at 665 nm and 615 nm were measured with an EnVision plate reader, and the inhibition rate was calculated.
Inhibition rate %)=[(X−Min)/(Max−Min)]×100%
X is the fluorescence value ratio of “665/615” of the test compound; Min is the average value of “665/615” of the DMSO blank control; Max is the average value of “665/615” of the 10 μM SRC.

SMILES | IC50 [nM] | IC50 (inhibitory activity of RORγ at the molecular level, FRET 665/615, read-out: IC50) [nM]
CCS(=O)(=O)c1ccc([C@H](CO)NC(=O)c2ccc(N3C[C@@H](Oc4ccc(C(F)(F)F)cc4)C[C@H]3COC(F)(F)F)cc2C#N)cc1 [Example 96, 2-cyano-N—((R)-1-(4-(ethylsulfonyl)phenyl)-2-hydroxyethyl)-4-((2S,4S)-2-((trifluoromethoxy)methyl)-4-(4-(trifluoromethyl)phenoxy)pyrrolidin-1-yl)benzamide] | 64 | 
CCS(=O)(=O)c1ccc([C@H](CO)NC(=O)c2cnc(N3C[C@H](Oc4ccc(C(F)(F)F)cc4)C[C@H]3COCC3CC3)nc2)cc1 [Example 60] | 33.8 | 
CCS(=O)(=O)c1ccc(CNC(=O)c2ccc(N3CCC(Oc4ccc(C(F)(F)F)cc4)C3)cc2)cc1 (centres unmarked) [Example 9, N-(4-(ethylsulfonyl)benzyl)-4-(3-(4-(trifluoromethyl)phenoxy)pyrrolidin-1-yl)benzamide] | 11.9 | 
CCS(=O)(=O)c1ccc([C@H](CO)NC(=O)c2cnc(N3C[C@@H](Oc4ccc(C(F)(F)F)cc4)C[C@H]3COC(F)F)nc2)nc1 [Example 71] | 9.3 | 
CCS(=O)(=O)c1ccc([C@H](CO)NC(=O)c2ccc(N3C[C@H](Oc4ccc(C(F)(F)F)cc4)C[C@H]3COC(C)(F)F)cc2)cc1 [Example 42] |  | 17.8
CCS(=O)(=O)c1ccc([C@H](CCO)NC(=O)c2ccc(N3CC(Oc4ccc(OC(F)(F)F)cc4)C[C@H]3COC(F)(F)F)cc2)cc1 (stereo in doubt) [Example 118, N—((S)-1-(4-(ethylsulfonyl)phenyl)-3-hydroxypropyl)-4-((2S,4S)-2-((trifluoromethoxy)methyl)-4-(4-(trifluoromethoxy)phenoxy)pyrrolidin-1-yl)benzamide] | 8 | 
CCS(=O)(=O)c1ccc(CNC(=O)c2ccc(N3C[C@@H](Oc4ccc(OC(F)(F)F)cn4)C[C@H]3COC(F)F)cc2)nc1 [Example 112] | 8 | 
CCC(F)(F)OC[C@@H]1C[C@H](Oc2ccc(C(F)(F)F)cc2)CN1c1ccc(C(=O)N[C@@H](CO)c2ccc(S(=O)(=O)CC)cn2)cc1 [Example 73] | 13 | 
CCS(=O)(=O)c1ccc([C@H](CO)NC(=O)c2ccc(N3C[C@@H](Oc4ccc(C(F)(F)F)cc4)C[C@H]3COC(F)F)c(F)c2)cc1 [Example 85] | 4.5 | 
CCS(=O)(=O)c1ccc([C@H](CCO)NC(=O)c2ccc(N3C[C@@H](Oc4ccc(OC(F)(F)F)cn4)C[C@H]3COC(F)F)cc2)cc1 [Example 108] | 6 | 
[2H]C([2H])([2H])OC[C@@H]1C[C@H](Oc2ccc(C(F)(F)F)cc2)CN1c1ccc(C(=O)NCc2ccc(S(=O)(=O)CC)cc2)cc1 [Example 109, N-(4-(ethylsulfonyl)benzyl)-4-((2S,4S)-2-(3,3,3-d3-methoxymethyl)-4-(4-(trifluoromethyl)phenoxy)pyrrolidin-1-yl)benzamide] | 6.4 | 
CCS(=O)(=O)c1ccc([C@H](CCO)NC(=O)c2ccc(N3C[C@H](Oc4ccc(OC(F)(F)F)cc4)C[C@H]3COC(F)F)nc2)cc1 [Example 115] | 13 | 
CCS(=O)(=O)c1ccc([C@@H](CO)NC(=O)c2ccc(N3C[C@@H](Oc4ccc(C(F)(F)F)cc4)C[C@H]3COC(F)F)cc2)cc1 [Example 98] | 17 | 
CCS(=O)(=O)c1ccc([C@H](CO)NC(=O)c2cnc(N3C[C@H](Oc4ccc(C(F)(F)F)cc4)C[C@H]3COC(F)(F)F)nc2)cc1 [Example 95, N—((R)-1-(4-(ethylsulfonyl)phenyl)-2-hydroxyethyl)-2-((2S,4R)-2-((trifluoromethoxy)methyl)-4-(4-(trifluoromethyl)phenoxy)pyrrolidin-1-yl)pyrimidine-5-carboxamide] | 45 | 
CCOC[C@@H]1CC(Oc2ccc(C(F)(F)F)cc2)CN1c1ccc(C(=O)N[C@@H](CO)c2ccc(S(=O)(=O)CC)cc2)cc1 (some centres unmarked) [Example 20] | 14.1 | 
CCS(=O)(=O)c1ccc([C@H](CO)NC(=O)c2ccc(N3C[C@H](Oc4ccc(C(F)(F)F)cc4)C[C@H]3COC(F)F)cc2)nc1 [Example 68] | 75.3 | 
CCS(=O)(=O)c1ccc([C@H](CO)NC(=O)c2cnc(N3C[C@H](Oc4ccc(C(F)(F)F)cc4)C[C@H]3CCOC(F)F)nc2)cc1 [Example 63] | 48 | 

Source: US20230067159A1, “ROR-GAMMA-T INHIBITOR, PREPARATION METHOD THEREOF AND USE THEREOF” (priority 2020, published 2023)
